Laboratory results as given in publication PMC8776894 (Communications Biology, 2022).
Where “and” joins values, the source holds several entries; their conditions need not be identical. Identical values can stand only once.

Tests used:
MCAO/R mice [1] = assay: Rotarod test; type: in vivo, mouse; details: VK 150 and 300 µg/kg i.p.
Description: The mice were placed in a RotaRod Treadmill (Harvard Apparatus, LE8205) for adaptive training 3 days before MACO/R. The rotating rod was started and the speed was set to accelerate to 40 rpm within 5 min. The mice drop time was recorded as an indicator. The test was performed at 24 and 48 h after MCAO/R.

[2] = VK stability in PBS (HPLC); type: physicochemical; details: pH 7.4, 37 °C, 750 rpm, 120 min, VK 0.735 mM (Fig. 1 legend 73.5 nM), HPLC-UV 215 nm, peak area relative to 0 min, at least triplicate
Description: Proteolytic degradation of peptide-based drugs is generally considered as the main defect to limit systemic therapeutic applications. Therefore, high-performance liquid chromatography (HPLC) was used to assess the stability of VK in PBS or plasma at physiological pH (7.4) and temperature (37 °C). […] For neuropharmacology, crossing the BBB is a remarkable challenge, and VK was labeled with FITC in the N-terminus. FITC-labeled VK was then administered to stroke mice. After 30 min, these mice were imaged by an in vivo imaging system. […] Brains were collected at 0, 30, 60, 90, and 120 min and the distribution of VK was observed. […] To further evaluate whether VK was a cell-penetrating peptide, the oxygen-glucose deprivation/reoxygenation (OGD/R) model simulated I/R […] was established in HT22 hippocampal neuron cells and FITC-labeled VK was incubated for 120 min.
VK in PBS or plasma was detected by quantifying the peak areas relative to the initial peak areas (0 min). All stability tests were performed at least in triplicate.

mice = assay: Acute toxicity test (single i.p. dose); type: in vivo, mouse
Description: To ensure that the safety of VK in vivo, acute toxicity test was performed. […] Clinical symptoms (temperature, change in skin, eye color change, general physique, body weight, diarrhea, sedation, and organ index) were recorded (Supplementary Table 3). […] Karyopyknosisa and the cellular swelling of the hepatocyte were moderate in the liver of mice treated with VK (96 and 384 mg/kg). […]
Acute toxicity test. Systemic acute toxicity test by peritoneal injection was performed according to the guideline provided by Center for Drug Evaluation and Research. In addition to the normal group, male mice were randomly divided into the treated groups received a single dose of 1.5 mg/kg, 6 mg/kg, 24 mg/kg, 96 mg/kg and 384 body weight of VK. Clinical signs of toxicity such as mortality, skin, eyes, fur, respiratory pattern , changes in general behavior and activity were individually observed. […]
day, the mice were anesthetized with 1.5% isoflurane in a mixture of 30% O2 and 69% N2O. Blood was collected from muse eyeballs and mixed with 3.2% sodium citrate at a v/v ratio of 1:9. Then, the blood was centrifuged at 3,000 rpm for 10 min.
The obtained plasma was analyzed using an automatic coagulation apparatus (CA1500).

[3] = system: neurons in cortex and hippocampus of MCAO/R mice; assay: Nissl staining; type: in vivo, mouse
Description: Mice were anesthetized at 48 h after MCAO/R. Brain samples (bregma −2.06–1.94 mm) were collected and fixed by 4% paraformaldehyde for 12–18 h. Following sequential dehydration by 10%, 20%, and 30% sucrose, brains were put in frozen section embedding medium (SAKURA Tissue-Tek O.C.T. Compound, Japan) and cut into […] sections at the level of the frontal cortex (bregma: 1.0 to −1.94 mm) using a cryostat microtome (Leica CM1950). The sections were subsequently stained with Nissl staining.

MCAO/R mice [4] = assay: Grip test; type: in vivo, mouse; set-up: grip test (Fig.2g): unit not given here; details: for grip test (Fig.2g): individual animals
Description: The grip strength (The Chatillon® DFE Digital Force Gauge DFX-050) was used to evaluate the effects of VK on muscular incoordination of mice. The forelimbs of the mice were placed on the test grid and the mice were gently pulled after the animals were grasped and the force value when the claws of the animals were recorded was the grip value. The test was performed at 24 and 48 h after MCAO/R.

[5] = VK 1.5 mg/kg single i.p., n=5, 14 d observation
[6] = VK 6 mg/kg single i.p., n=6, 14 d observation
[7] = VK 24 mg/kg single i.p., n=6, 14 d observation
[8] = VK 96 mg/kg single i.p., n=6, 14 d observation
[9] = VK 384 mg/kg single i.p., n=6, 14 d observation

Substance: Gly-Arg-Pro-Hyp-Gly-Phe-Ser-Pro-Phe-Arg-Ile-Asp [VK, Vespakinin-M]
- sensorimotor function, rotarod test (MCAO/R mice [1]): improved functional performance and ameliorated the sensorimotor asymmetry
- degradation rate of VK in PBS [2]: 62.4%
- Body weight (mice; [5]): Normal
- Breathing difficulty (mice; [5]): Normal
- Change In skin (mice; [5]): No effect
- Coma (mice; [5]): Normal
- Death (mice; [5]): Alive
- Diarrhea (mice; [5]): Normal
- Drowsiness (mice; [5]): Normal
- Eye color change (mice; [5]): No effect
- Organ index (mice; [5]): Normal
- Sedation (mice; [5]): Normal
- Temperature (mice; [5]): Normal
- Tremor (mice; [5]): Normal
- Body weight (mice; [6]): Normal
- Breathing difficulty (mice; [6]): Normal
- Change In skin (mice; [6]): No effect
- Coma (mice; [6]): Normal
- Death (mice; [6]): Alive
- Diarrhea (mice; [6]): Normal
- Drowsiness (mice; [6]): Normal
- Eye color change (mice; [6]): No effect
- Organ index (mice; [6]): Normal
- Sedation (mice; [6]): Normal
- Temperature (mice; [6]): Normal
- Tremor (mice; [6]): Normal
- Body weight (mice; [7]): Decline
- Breathing difficulty (mice; [7]): Normal
- Change In skin (mice; [7]): No effect
- Coma (mice; [7]): Normal
- Death (mice; [7]): Alive
- Diarrhea (mice; [7]): Normal
- Drowsiness (mice; [7]): Normal
- Eye color change (mice; [7]): No effect
- Organ index (mice; [7]): Normal
- Sedation (mice; [7]): Normal
- Temperature (mice; [7]): Normal
- Tremor (mice; [7]): Normal
- Body weight (mice; [8]): Decline
- Breathing difficulty (mice; [8]): Normal
- Change In skin (mice; [8]): No effect
- Coma (mice; [8]): Normal
- Death (mice; [8]): Alive
- Diarrhea (mice; [8]): Normal
- Drowsiness (mice; [8]): Normal
- Eye color change (mice; [8]): No effect
- Organ index (mice; [8]): Normal
- Sedation (mice; [8]): Normal
- Temperature (mice; [8]): Normal
- Tremor (mice; [8]): Normal
- liver index (mice; VK 384 mg/kg single i.p.): increased liver index
- Body weight (mice; [9]): Decline
- Breathing difficulty (mice; [9]): Normal
- Change In skin (mice; [9]): No effect
- Coma (mice; [9]): Normal
- Death (mice; [9]): Alive
- Diarrhea (mice; [9]): Normal
- Drowsiness (mice; [9]): Normal
- Eye color change (mice; [9]): No effect
- Organ index (mice; [9]): Increased
- Sedation (mice; [9]): Normal
- Temperature (mice; [9]): Normal
- Tremor (mice; [9]): Normal
- Body weight (mice; VK 24, 96 and 384 mg/kg single i.p.): continued to lose weight until day 5
- index of brain, myocardium and kidney (mice; all treatment dose groups (1.5-384 mg/kg single i.p.)): no difference
- safe multiple of the effective dose (150 μg/kg) (mice; mice): 640 times
- safe doses of VK in acute toxicity tests (mice; mice, single i.p. dose): < 96 mg/kg
- mortality (mice; single i.p. dose 1.5, 6, 24, 96 and 384 mg/kg, observed for 24 h): no mortality was observed
- neuron morphology, Nissl staining [3]: morphologically intact neurons were broadly seen
- grip test (Fig.2g) (MCAO/R mice [4]; VK 150 µg/kg i.p.): 103 and 99.5 and 136 and 78 and 61.1 and 99 and 115.7
- grip test (Fig.2g) (MCAO/R mice [4]; VK 300 µg/kg i.p.): 116.6 and 26 and 19.5 and 56.2 and 63.2 and 77 and 80.9
- sensorimotor function, grip test (MCAO/R mice [4]; VK 150 and 300 µg/kg i.p.): improved functional performance and ameliorated the sensorimotor asymmetry
